What was measured:
[1] = molecular target: T1, Protein mono-ADP-ribosyltransferase PARP3 (Homo sapiens, UniProt Q9Y6F1); experiment: Inhibition of human PARP3
T1 sequence (Q9Y6F1 whole entry): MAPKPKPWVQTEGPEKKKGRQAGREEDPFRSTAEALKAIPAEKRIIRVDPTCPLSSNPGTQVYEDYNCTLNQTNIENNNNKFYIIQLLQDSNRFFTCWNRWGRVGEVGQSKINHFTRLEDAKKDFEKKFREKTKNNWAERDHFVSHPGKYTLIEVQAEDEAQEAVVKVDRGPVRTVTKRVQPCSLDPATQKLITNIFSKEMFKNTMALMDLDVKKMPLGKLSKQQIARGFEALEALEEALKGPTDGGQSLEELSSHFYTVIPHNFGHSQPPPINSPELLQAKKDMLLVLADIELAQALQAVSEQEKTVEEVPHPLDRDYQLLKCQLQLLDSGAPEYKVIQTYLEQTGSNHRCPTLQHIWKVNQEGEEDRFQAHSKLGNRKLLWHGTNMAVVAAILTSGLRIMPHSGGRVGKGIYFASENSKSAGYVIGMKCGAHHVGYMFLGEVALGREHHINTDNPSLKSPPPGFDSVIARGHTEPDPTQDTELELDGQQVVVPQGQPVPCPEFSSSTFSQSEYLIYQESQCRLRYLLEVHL

[2] = molecular target: T2, Protein mono-ADP-ribosyltransferase PARP10 (Homo sapiens, UniProt Q53GL7); experiment: Inhibition of human PARP-10 using NAD+ as substrate incubated for 10 mins by fluorescence based analysis
T2 sequence (Q53GL7 whole entry): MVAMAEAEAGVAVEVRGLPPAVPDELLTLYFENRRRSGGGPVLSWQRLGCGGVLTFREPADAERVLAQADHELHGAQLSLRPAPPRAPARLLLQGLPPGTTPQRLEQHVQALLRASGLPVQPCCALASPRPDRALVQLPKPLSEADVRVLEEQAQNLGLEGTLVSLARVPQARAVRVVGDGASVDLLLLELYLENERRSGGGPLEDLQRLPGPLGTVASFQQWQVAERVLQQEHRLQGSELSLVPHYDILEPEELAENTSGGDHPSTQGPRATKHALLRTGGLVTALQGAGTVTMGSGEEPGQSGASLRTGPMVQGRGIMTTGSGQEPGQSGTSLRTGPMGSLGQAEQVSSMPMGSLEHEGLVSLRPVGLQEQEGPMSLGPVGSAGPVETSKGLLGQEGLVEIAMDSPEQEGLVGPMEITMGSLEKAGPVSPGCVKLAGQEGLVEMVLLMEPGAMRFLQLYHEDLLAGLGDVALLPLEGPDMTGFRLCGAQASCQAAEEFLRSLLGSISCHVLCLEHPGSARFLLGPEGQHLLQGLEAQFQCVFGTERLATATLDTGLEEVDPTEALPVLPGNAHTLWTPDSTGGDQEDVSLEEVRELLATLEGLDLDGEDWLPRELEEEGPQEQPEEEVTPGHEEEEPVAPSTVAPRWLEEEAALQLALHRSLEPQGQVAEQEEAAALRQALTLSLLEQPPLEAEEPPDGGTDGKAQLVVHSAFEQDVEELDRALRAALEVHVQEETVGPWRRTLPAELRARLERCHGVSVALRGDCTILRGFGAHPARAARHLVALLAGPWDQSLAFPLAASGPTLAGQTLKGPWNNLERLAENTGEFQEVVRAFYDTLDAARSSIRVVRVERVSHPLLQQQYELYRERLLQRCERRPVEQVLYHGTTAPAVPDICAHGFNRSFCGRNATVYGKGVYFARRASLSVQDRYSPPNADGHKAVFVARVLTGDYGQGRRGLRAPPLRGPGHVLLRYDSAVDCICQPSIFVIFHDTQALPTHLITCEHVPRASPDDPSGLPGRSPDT

[3] = system: HEK-293T; experiment: Cytotoxicity against HEK293T cells assessed as reduction in cell viability at 10 uM measured after 24 hrs by WST-1 assay; format: toxicity, cell-based; conditions: human
[4] = molecular target: T3, Protein mono-ADP-ribosyltransferase PARP16 (Homo sapiens, UniProt Q8N5Y8); experiment: Inhibition of human PARP16
T3 sequence (Q8N5Y8 whole entry): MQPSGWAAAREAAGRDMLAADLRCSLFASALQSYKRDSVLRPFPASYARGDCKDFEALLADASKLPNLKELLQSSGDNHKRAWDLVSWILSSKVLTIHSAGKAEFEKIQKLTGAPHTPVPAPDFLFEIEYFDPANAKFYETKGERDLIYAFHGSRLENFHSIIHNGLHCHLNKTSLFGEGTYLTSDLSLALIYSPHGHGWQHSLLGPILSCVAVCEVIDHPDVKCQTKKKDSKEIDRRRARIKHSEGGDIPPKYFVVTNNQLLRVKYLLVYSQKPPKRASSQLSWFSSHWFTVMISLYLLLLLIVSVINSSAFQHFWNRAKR

[5] = system: HeLa; experiment: Rescue of cell viability in human HeLa cells expressing wild type PARP10 at upto 10 uM incubated for 10 to 12 days by methylene blue dye based colony formation assay; format: functional

IC50 [1]: > 100 µM | IC50 [2]: 290 nM | IC50 [4]: > 10 µM | EC50 [5]: 590 nM
SMILES: NC(=O)c1ccc(OCC2CCC2)cc1
Activity [3]: Non-Toxic

From ChEMBL document CHEMBL5120855, “Potent 2,3-dihydrophthalazine-1,4-dione derivatives as dual inhibitors for mono-ADP-ribosyltransferases PARP10 and PARP15” (Eur J Med Chem, 2022)
